Source: patent US10183950B2, “Thienopyrimidine inhibitors of atypical protein kinase C” (Cancer Research Technology Limited, priority 2011, dated 2019)

target: T1, full-length human PKCι (Homo sapiens, UniProt P41743); assay: PKCι IC50 IMAP fluorescence polarisation assay, full-length enzyme; format: biochemical; conditions: full length PKCi at 15 μM ATP; read-out: IC50 in IMAP assay against full length PKCi
T1 construct: Recombinant, full-length human PKCι expressed in Sf21 insect cells is also commercially available; purchased; host or cells: Sf21 insect cells
T1 sequence (P41743 1-596): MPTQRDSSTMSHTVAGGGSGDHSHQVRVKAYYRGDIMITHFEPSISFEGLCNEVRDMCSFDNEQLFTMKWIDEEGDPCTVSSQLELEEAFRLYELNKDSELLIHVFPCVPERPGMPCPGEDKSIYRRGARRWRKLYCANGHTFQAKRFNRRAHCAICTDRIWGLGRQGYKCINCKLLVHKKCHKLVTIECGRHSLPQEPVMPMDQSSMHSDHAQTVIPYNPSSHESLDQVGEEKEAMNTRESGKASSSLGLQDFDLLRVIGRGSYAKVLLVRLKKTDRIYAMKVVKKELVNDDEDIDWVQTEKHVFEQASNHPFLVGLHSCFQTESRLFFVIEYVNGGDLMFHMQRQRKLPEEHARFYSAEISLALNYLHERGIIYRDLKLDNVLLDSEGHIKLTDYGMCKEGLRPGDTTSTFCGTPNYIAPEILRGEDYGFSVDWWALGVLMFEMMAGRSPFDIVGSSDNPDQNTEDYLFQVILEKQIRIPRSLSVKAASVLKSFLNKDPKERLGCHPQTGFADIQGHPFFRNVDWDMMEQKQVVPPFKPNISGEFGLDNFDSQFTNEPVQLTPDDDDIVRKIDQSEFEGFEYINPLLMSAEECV

| IC50 | Structure (SMILES) |
| --- | --- |
| 100 to 1000 nM | CN1CCN(C(=O)c2ccc(Nc3cc(-c4nc(N[C@@H]5CCNC5)c5sccc5n4)ccn3)cc2)CC1 [compound 613, (4-Methyl-piperazin-1-yl)-(4-{4-[4-((R)-pyrrolidin-3-ylamino)-thieno[3,2-d]pyrimidin-2-yl]-pyridin-2-ylamino}-phenyl)-methanone] |
| 100 to 1000 nM | Brc1csc2c(N3CCNCC3)nc(-c3ccncc3)nc12 [compound 350, 7-Bromo-4-piperazin-1-yl-2-pyridin-4-yl-thieno[3,2-d]pyrimidine] |
| 1000 to 10000 nM | N[C@H](CNc1nc(-c2ccncc2Cl)nc2ccsc12)Cc1ccccc1 [compound 323, (S)-N*1*-[2-(3-Chloro-pyridin-4-yl)-thieno[3,2-d]pyrimidin-4-yl]-3-phenyl-propane-1,2-diamine] |
| 100 to 1000 nM | N[C@H](CNc1nc(-c2ccncc2)nc2c(-c3cc[nH]c3)csc12)Cc1ccccc1 [compound 398, (S)-3-Phenyl-N*1*-[2-pyridin-4-yl-7-(1H-pyrrol-3-yl)-thieno[3,2-d]pyrimidin-4-yl]-propane-1,2-diamine] |
| < 100 nM | C[C@H](O)C#Cc1csc2c(N[C@@H]3CCNC3)nc(-c3ccncc3)nc12 [compound 517, (S)-4-[2-Pyridin-4-yl-4-((R)-pyrrolidin-3-ylamino)-thieno[3,2-d]pyrimidin-7-yl]-but-3-yn-2-ol] |
| 10000 to 40000 nM | CC(C)(C)c1sc2c(NC[C@@H](N)Cc3ccccc3)nc(-c3ccncc3)nc2c1-c1cccc(F)c1 [compound 436, (S)-N*1*-[6-tert-Butyl-7-(3-fluoro-phenyl)-2-pyridin-4-yl-thieno[3,2-d]pyrimidin-4-yl]-3-phenyl-propane-1,2-diamine] |
| 10000 to 40000 nM | Fc1cnccc1-c1nc(N[C@@H]2CCNC2)c2sccc2n1 [compound 354, [2-(3-Fluoro-pyridin-4-yl)-thieno[3,2-d]pyrimidin-4-yl]-(R)-pyrrolidin-3-yl-amine] |
| 100 to 1000 nM | CC(C)(O)C#Cc1csc2c(N[C@@H]3CCNC3)nc(-c3ccncc3)nc12 [compound 514, 2-Methyl-4-[2-pyridin-4-yl-4-((R)-pyrrolidin-3-ylamino)-thieno[3,2-d]pyrimidin-7-yl]-but-3-yn-2-ol] |
| 10000 to 40000 nM | c1cc(-c2nc(N[C@@H]3CCNC3)c3sccc3n2)cc(NC2CCOCC2)n1 [compound 625, (R)-Pyrrolidin-3-yl-{2-[2-(tetrahydro-pyran-4-ylamino)-pyridin-4-yl]-thieno[3,2-d]pyrimidin-4-yl}-amine] |
| 100 to 1000 nM | C#Cc1csc2c(N[C@@H]3CCNC3)nc(-c3ccncc3)nc12 [compound 559, (7-Ethynyl-2-pyridin-4-yl-thieno[3,2-d]pyrimidin-4-yl)-(R)-pyrrolidin-3-yl-amine] |
| 100 to 1000 nM | CN1CCN(c2ccc(Nc3cc(-c4nc(N[C@@H]5CCNC5)c5sccc5n4)ccn3)nc2)CC1 [compound 603, (2-{2-[5-(4-Methyl-piperazin-1-yl)-pyridin-2-ylamino]-pyridin-4-yl}-thieno[3,2-d]pyrimidin-4-yl)-(R)-pyrrolidin-3-yl-amine] |
| 10000 to 40000 nM | NC(=O)CN1CC[C@@H](Nc2nc(-c3ccnc(Nc4ccccc4)c3)nc3ccsc23)C1 [compound 631, 2-{(R)-3-[2-(2-Phenylamino-pyridin-4-yl)-thieno[3,2-d]pyrimidin-4-ylamino]-pyrrolidin-1-yl}-acetamide] |
| 1000 to 10000 nM | N[C@@H](CNc1nc(-c2ccncc2)nc2c(-c3ccc(Br)cc3)csc12)Cc1ccccc1 [compound 327, (R)-N*1*-[7-(4-Bromo-phenyl)-2-pyridin-4-yl-thieno[3,2-d]pyrimidin-4-yl]-3-phenyl-propane-1,2-diamine] |
| 10000 to 40000 nM | O=C(Nc1csc2c(N[C@@H]3CCNC3)nc(-c3ccncc3)nc12)C1CCCC1 [compound 475, Cyclopentanecarboxylic acid [2-pyridin-4-yl-4-((R)-pyrrolidin-3-ylamino)-thieno[3,2-d]pyrimidin-7-yl]-amide] |
| 1000 to 10000 nM | CC(C)[C@](C)(O)C#Cc1csc2c(NC[C@@H](N)Cc3ccccc3)nc(-c3ccncc3)nc12 [compound 524, (S)-1-[4-((S)-2-Amino-3-phenyl-propylamino)-2-pyridin-4-yl-thieno[3,2-d]pyrimidin-7-yl]-3,4-dimethyl-pent-1-yn-3-ol] |
| < 100 nM | N[C@H](CNc1nc(-c2ccncc2)nc2c(C#CC3(O)CCCC3)csc12)Cc1ccccc1 [compound 528] |
| 100 to 1000 nM | CC(C)(O)CC#Cc1csc2c(NC[C@@H](N)Cc3ccccc3)nc(-c3ccncc3)nc12 [compound 537, 5-[4-((S)-2-Amino-3-phenyl-propylamino)-2-pyridin-4-yl-thieno[3,2-d]pyrimidin-7-yl]-2-methyl-pent-4-yn-2-ol] |
| 100 to 1000 nM | C[C@H](O)CC#Cc1csc2c(NC[C@@H](N)Cc3ccccc3)nc(-c3ccncc3)nc12 [compound 540, (S)-5-[4-((S)-2-Amino-3-phenyl-propylamino)-2-pyridin-4-yl-thieno[3,2-d]pyrimidin-7-yl]-pent-4-yn-2-ol] |
| 1000 to 10000 nM | N[C@H](CNc1nc(-c2ccncc2)nc2c(CCC3CC3)csc12)Cc1ccccc1 [compound 563, (S)—N*1*-[7-(2-Cyclopropyl-ethyl)-2-pyridin-4-yl-thieno[3,2-d]pyrimidin-4-yl]-3-phenyl-propane-1,2-diamine] |

| Structure (SMILES) | IC50 |
| --- | --- |
| COc1cccc(OCC(C)C)c1-c1c(C)sc2c(NC[C@@H](N)Cc3ccccc3)nc(-c3ccncc3)nc12 [compound 455, (S)-N*1*-[7-(2-Isobutoxy-6-methoxy-phenyl)-6-methyl-2-pyridin-4-yl-thieno[3,2-d]pyrimidin-4-yl]-3-phenyl-propane-1,2-diamine] | 10000 to 40000 nM |

same assay, conditions: full length PKCi at 15 μM ATP; read-out: IC50 in IMAP assay against full length PKCi (Activity)

| IC50 | Structure (SMILES) |
| --- | --- |
| 1000 to 10000 nM | CC(=O)N1CCc2c(sc3nc(-c4ccncc4)nc(NCCN)c23)C1 [compound 105, 1-[4-(2-Amino-ethylamino)-2-pyridin-4-yl-5,8-dihydro-6H-pyrido[4′,3′:4,5]thieno[2,3-d]pyrimidin-7-yl]-ethanone] |
| 10000 to 40000 nM | NCCNc1nc(-c2ccncc2)nc2sc3c(c12)CCOC3 [compound 45, N*1*-(2-Pyridin-4-yl-5,8-dihydro-6H-pyrano[4′3′:4,5]thieno[2,3-d]pyrimidin-4-yl)-ethane-1,2-diamine] |
| 100 to 1000 nM | N[C@@H](CNc1nc(-c2ccncc2)nc2sc3c(c12)CCC1(C3)OCCO1)Cc1ccccc1 [compound 79, (R)-3-Phenyl-N*1*-*-1,4-Dioxa-spiro[7.7]-(2-pyridin-4-yl-5,6,7,8-tetrahydro-benzo[4,5]thieno[2,3-d]pyrimidin-4-yl)-propane-1,2-diamine] |
| 100 to 1000 nM | Cc1cccc(C[C@H](N)CNc2nc(-c3ccncc3)nc3sc4c(c23)CCCC4)c1 [compound 48, (S)-N*1*-(2-Pyridin-4-yl-5,6,7,8-tetrahydro-benzo[4,5]thieno[2,3-d]pyrimidin-4-yl)-3-m-tolyl-propane-1,2-diamine] |
| 1000 to 10000 nM | c1cc(-c2nc(O[C@@H]3CCNC3)c3c4c(sc3n2)CCCC4)ccn1 [compound 139, 2-Pyridin-4-yl-4-((R)-pyrrolidin-3-yloxy)-5,6,7,8-tetrahydro-benzo[4,5]thieno[2,3-d]pyrimidine] |
| 1000 to 10000 nM | N[C@@H](CNc1nc(-c2ccncc2)nc2sc3c(c12)CCN(C(=O)c1ccccc1)C3)Cc1ccccc1 [compound 73, [4-((R)-2-Amino-3-phenyl-propylamino)-2-pyridin-4-yl-5,8-dihydro-6H-pyrido[4′,3′:4,5]thieno[2,3-d]pyrimidin-7-yl]-phenyl-methanone] |
